Assay results as given in patent publication US20260053812A1, “METHODS OF TREATING HYPERTENSION WITH A COMBINATION OF AN ALDOSTERONE SYNTHASE INHIBITOR AND A DIURETIC” (Mineralys Therapeutics, Inc., priority 2022, published 2026).

Assay: Adverse events (TEAEs, SAEs, AESI; Safety Analysis Set)
Excerpt: In analyses performed on the Safety Analysis Set, subjects will be analyzed according to their actual treatment received.

CC(=O)N[C@H]1CC[C@H](NC(=O)CN2CCN(c3nncc(-c4ccc(C)cc4)n3)CC2)CC1 [Compound A HBr]
AE requiring dose titration: Hyperkalemia (100 mg QD Pooled, N 60): 2 (3.3%) | AE requiring dose titration: Hyponatremia (100 mg QD Pooled, N 60): 1 (1.7%) | AE requiring dose titration: Other possibly related (100 mg QD Pooled, N 60): 0 | AE requiring dose titration: Other unrelated (100 mg QD Pooled, N 60): 0 | AE requiring study drug discontinuation: Hyperkalemia (100 mg QD Pooled, N 60): 2 (3.3%) | AE requiring study drug discontinuation: Hyponatremia (100 mg QD Pooled, N 60): 1 (1.7%) | AE requiring study drug discontinuation: Hypotension (100 mg QD Pooled, N 60): 2 (3.3%) | AE requiring study drug discontinuation: Other possibly related (100 mg QD Pooled, N 60): 1 (1.7%) | AE requiring study drug discontinuation: Other unrelated (100 mg QD Pooled, N 60): 4 (6.7%) | Serious adverse events (SAEs) related to the study medication (Example 1 analysis, whole trial): No serious adverse events | Subjects with TEAE resulting in dose modification (Part 1): 24 subjects | AE requiring dose titration: Hyperkalemia (Part 1 100 mg QD, N 29): 1 (3.4%) | AE requiring dose titration: Hyponatremia (Part 1 100 mg QD, N 29): 0 | AE requiring dose titration: Other possibly related (Part 1 100 mg QD, N 29): 0 | AE requiring dose titration: Other unrelated (Part 1 100 mg QD, N 29): 0 | AE requiring study drug discontinuation: Hyperkalemia (Part 1 100 mg QD, N 29): 2 (6.9%) | AE requiring study drug discontinuation: Hyponatremia (Part 1 100 mg QD, N 29): 0 | AE requiring study drug discontinuation: Hypotension (Part 1 100 mg QD, N 29): 1 (3.4%) | AE requiring study drug discontinuation: Other possibly related (Part 1 100 mg QD, N 29): 1 (3.4%) | AE requiring study drug discontinuation: Other unrelated (Part 1 100 mg QD, N 29): 3 (6.0%) | On-treatment TEAE, Cardiac disorders, % (Part 1, 12.5 mg BID (N = 22)): (4.5) % | On-treatment TEAE, Cortisol decreased, % (Part 1, 12.5 mg BID (N = 22)): (9.1) % | On-treatment TEAE, Cortisol decreased, Mild, % (Part 1, 12.5 mg BID (N = 22)): (9.1) % | On-treatment TEAE, General disorders and administration site conditions, % (Part 1, 12.5 mg BID (N = 22)): (9.1) % | On-treatment TEAE, General disorders and administration site conditions, Mild, % (Part 1, 12.5 mg BID (N = 22)): (4.5) % | On-treatment TEAE, Glomerular filtration rate decreased, % (Part 1, 12.5 mg BID (N = 22)): (13.6) % | On-treatment TEAE, Glomerular filtration rate decreased, Mild, % (Part 1, 12.5 mg BID (N = 22)): (13.6) % | On-treatment TEAE, Hyperkalaemia, % (Part 1, 12.5 mg BID (N = 22)): (22.7) % | On-treatment TEAE, Hyperkalaemia, Mild, % (Part 1, 12.5 mg BID (N = 22)): (18.2) % | On-treatment TEAE, Hyperkalaemia, Moderate, % (Part 1, 12.5 mg BID (N = 22)): (4.5) % | On-treatment TEAE, Infections and infestations, % (Part 1, 12.5 mg BID (N = 22)): (4.5) % | On-treatment TEAE, Infections and infestations, Moderate, % (Part 1, 12.5 mg BID (N = 22)): (4.5) % | On-treatment TEAE, Investigations, % (Part 1, 12.5 mg BID (N = 22)): (27.3) % | On-treatment TEAE, Investigations, Mild, % (Part 1, 12.5 mg BID (N = 22)): (22.7) % | On-treatment TEAE, Investigations, Moderate, % (Part 1, 12.5 mg BID (N = 22)): (4.5) % | On-treatment TEAE, Metabolism and nutrition disorders, % (Part 1, 12.5 mg BID (N = 22)): (22.7) % | On-treatment TEAE, Metabolism and nutrition disorders, Mild, % (Part 1, 12.5 mg BID (N = 22)): (18.2) % | On-treatment TEAE, Metabolism and nutrition disorders, Moderate, % (Part 1, 12.5 mg BID (N = 22)): (4.5) % | On-treatment TEAE, Nervous system disorders, % (Part 1, 12.5 mg BID (N = 22)): (4.5) % | On-treatment TEAE, Nervous system disorders, Mild, % (Part 1, 12.5 mg BID (N = 22)): (4.5) % | On-treatment TEAE, Orthostatic hypotension, % (Part 1, 12.5 mg BID (N = 22)): (4.5) % | On-treatment TEAE, Orthostatic hypotension, Mild, % (Part 1, 12.5 mg BID (N = 22)): (4.5) % | On-treatment TEAE, Psychiatric disorders, % (Part 1, 12.5 mg BID (N = 22)): (4.5) % | On-treatment TEAE, Psychiatric disorders, Moderate, % (Part 1, 12.5 mg BID (N = 22)): (4.5) % | On-treatment TEAE, Vascular disorders, % (Part 1, 12.5 mg BID (N = 22)): (9.1) % | On-treatment TEAE, Vascular disorders, Mild, % (Part 1, 12.5 mg BID (N = 22)): (9.1) % | Subjects with any On-treatment TEAEs leading to withdrawal from study drug, % (Part 1, 12.5 mg BID (N = 22)): 4.5% | Subjects with any On-treatment TEAEs, Mild, % (Part 1, 12.5 mg BID (N = 22)): (36.4) % | Subjects with any On-treatment TEAEs, Moderate, % (Part 1, 12.5 mg BID (N = 22)): (22.7) % | TEAE leading to permanent discontinuation from study drug, Orthostatic hypotension, % (Part 1, 12.5 mg BID (N = 22)): 4.5% | TEAE leading to permanent discontinuation from study drug, Vascular disorders, % (Part 1, 12.5 mg BID (N = 22)): 4.5% | On-treatment TEAE, Cardiac disorders, % (Part 1, 12.5 mg QD (N = 23)): (8.7) % | On-treatment TEAE, Dizziness, % (Part 1, 12.5 mg QD (N = 23)): (4.3) % | On-treatment TEAE, Gastrointestinal disorders, % (Part 1, 12.5 mg QD (N = 23)): (8.7) % | On-treatment TEAE, Gastrointestinal disorders, Mild, % (Part 1, 12.5 mg QD (N = 23)): (4.3) % | On-treatment TEAE, General disorders and administration site conditions, % (Part 1, 12.5 mg QD (N = 23)): (4.3) % | On-treatment TEAE, Glomerular filtration rate decreased, % (Part 1, 12.5 mg QD (N = 23)): (4.3) % | On-treatment TEAE, Glomerular filtration rate decreased, Mild, % (Part 1, 12.5 mg QD (N = 23)): (4.3) % | On-treatment TEAE, Hyperkalaemia, % (Part 1, 12.5 mg QD (N = 23)): (26.1) % | On-treatment TEAE, Hyperkalaemia, Mild, % (Part 1, 12.5 mg QD (N = 23)): (17.4) % | On-treatment TEAE, Hyperkalaemia, Moderate, % (Part 1, 12.5 mg QD (N = 23)): (4.3) % | On-treatment TEAE, Hyperkalaemia, Severe, % (Part 1, 12.5 mg QD (N = 23)): (4.3) % | On-treatment TEAE, Hypertension, % (Part 1, 12.5 mg QD (N = 23)): (8.7) % | On-treatment TEAE, Hypertension, Moderate, % (Part 1, 12.5 mg QD (N = 23)): (4.3) % | On-treatment TEAE, Infections and infestations, % (Part 1, 12.5 mg QD (N = 23)): (13.0) % | On-treatment TEAE, Infections and infestations, Mild, % (Part 1, 12.5 mg QD (N = 23)): (13.0) % | On-treatment TEAE, Investigations, % (Part 1, 12.5 mg QD (N = 23)): (13.0) % | On-treatment TEAE, Investigations, Mild, % (Part 1, 12.5 mg QD (N = 23)): (13.0) % | On-treatment TEAE, Metabolism and nutrition disorders, % (Part 1, 12.5 mg QD (N = 23)): (26.1) % | On-treatment TEAE, Metabolism and nutrition disorders, Mild, % (Part 1, 12.5 mg QD (N = 23)): (17.4) % | On-treatment TEAE, Metabolism and nutrition disorders, Moderate, % (Part 1, 12.5 mg QD (N = 23)): (4.3) % | On-treatment TEAE, Nervous system disorders, % (Part 1, 12.5 mg QD (N = 23)): (8.7) % | On-treatment TEAE, Nervous system disorders, Mild, % (Part 1, 12.5 mg QD (N = 23)): (8.7) % | On-treatment TEAE, Orthostatic hypotension, % (Part 1, 12.5 mg QD (N = 23)): (8.7) % | On-treatment TEAE, Orthostatic hypotension, Mild, % (Part 1, 12.5 mg QD (N = 23)): (8.7) % | On-treatment TEAE, Urinary tract infection, % (Part 1, 12.5 mg QD (N = 23)): (4.3) % | On-treatment TEAE, Urinary tract infection, Mild, % (Part 1, 12.5 mg QD (N = 23)): (4.3) % | On-treatment TEAE, Vascular disorders, % (Part 1, 12.5 mg QD (N = 23)): (13.0) %
